Assay results from patent EP3720857B1, “2-OXO-5H-CHROMENO[4,3-B]PYRIDINES FOR USE IN THE TREATMENT OF HEPATITIS B” (Galapagos NV, priority 2017, dated 2019).
pIC50: −log10 of the molar value.

system: hepatitis virus B (HBV) infection; assay: HepG2 NTCP assay (HBcAg staining as marker of HBV infection); type: cell-based; conditions: HepG2-NTCP cells infected with HBV, HBV core antigen (HBcAg) as marker of infection
How it was run: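 HepG2-NTCP cells were infected with HBV (4% PEG, 1% DMSO) in the presence of compound overnight, then re-dosed and incubated 5 days at 37 °C. HBcAg immunofluorescence was imaged, with DAPI nuclei count taken as toxicity. Ten-point 1/3 dilutions gave % inhibition against 0.2% DMSO vehicle and 100 nM Myrcludex B, with dose-response curves fitted.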

pIC50, 9.00 to 12.00:
COCCCOc1cc2c(cc1F)-c1c(cc(C(=O)O)c(=O)n1C1CC1)C(C(C)C)O2 (stereo not drawn) [Compound 1, 1-cyclopropyl-9-fluoro-5-isopropyl-8-(3-methoxypropoxy)-2-oxo-5H-chromeno[4,3-b]pyridine-3-carboxylic acid]
COCCCOc1cc2c(cc1Cl)-c1c(cc(C(=O)O)c(=O)n1C1CC1)CO2 [Compound 6, 9-chloro-1-cyclopropyl-8-(3-methoxypropoxy) -2-oxo-5H-chromeno[4,3-b]pyridine-3-carboxylic acid]
CCC1Oc2cc(OCCCOC)c(F)cc2-c2c1cc(C(=O)O)c(=O)n2C1CC1 (stereo not drawn) [Compound 16, 1-cyclopropyl-5-ethyl-9-fluoro-8-(3-methoxypropoxy) -2-oxo-5H-chromeno[4,3-b]pyridine-3-carboxylic acid]
COCCCOc1cc2c(cc1Cl)-c1c(cc(C(=O)O)c(=O)n1C1CC1)C(C(C)(C)COC)O2 (stereo not drawn) [Compound 19, 9-chloro-1-cyclopropyl-5-(2-methoxy-1,1-dimethyl-ethyl)-8-(3-methoxypropoxy) -2-oxo-5H-chromeno[4,3-b]pyridine-3-carboxylic acid]
COCCCOc1cc2c(cc1F)-c1c(cc(C(=O)O)c(=O)n1C1CC1)[C@H](C(C)C)O2 [Compound 44, (5S)-1-cyclopropyl-9-fluoro-5-isopropyl-8-(3-methoxypropoxy)-2-oxo-5H-chromeno[4,3-b]pyridine-3-carboxylic acid]
COCCCOc1cc2c(cc1Cl)-c1c(cc(C(=O)O)c(=O)n1C1CC1)[C@H](C1(C)COC1)O2 [Compound 46, (5R)-9-chloro-1-cyclopropyl-8-(3-methoxypropoxy)-5-(3-methyloxetan-3-yl)-2-oxo-5H-chromeno[4,3-b]pyridine-3-carboxylic acid]
